According to ChEMBL document CHEMBL4219189, “Designing novel inhibitors against falcipain-2 of Plasmodium falciparum” (Bioorg Med Chem Lett, 2018):
The source made the active and inactive calls. The rule behind the calls is not given here.

Assays:
Plasmodium falciparum [1] = assay: Inhibition of chloroquine resistant Plasmodium falciparum RKL9 schizont stage infected in human erythrocytes assessed as reduction in […] growth after 24 hrs by Giemsa staining based assay; assay type: cell-based; details: RKL9, 24 h
Plasmodium falciparum [2] = assay: Inhibition of chloroquine sensitive Plasmodium falciparum MRC-02 schizont stage infected in human erythrocytes assessed as reduction in […] growth after 24 hrs by Giemsa staining based assay; assay type: cell-based; details: MRC-02, 24 h
Plasmodium falciparum [3] = assay: Resistance index, ratio of IC50 for chloroquine sensitive Plasmodium falciparum MRC-02 schizont stage infected in human erythrocytes to IC50 for chloroquine resistant Plasmodium falciparum RKL9 schizont stage infected in human erythrocytes
Plasmodium berghei [4] = assay: Antimalarial activity against Plasmodium berghei infected in Swiss albino mouse assessed as increase in mouse survival at 20 mg/kg/day, po for 4 consecutive days starting from 4 hrs post infection measured on day 28 by Giemsa staining based microscopic method; assay type: functional, organism-based
Plasmodium berghei [5] = assay: Antimalarial activity against Plasmodium berghei infected in Swiss albino mouse assessed as suppression of parasitaemia at 20 mg/kg/day, po for 4 consecutive days starting from 4 hrs post infection measured on day 4 post last dose by Giemsa staining based microscopic method relative to control; assay type: functional
Plasmodium berghei [6] = assay: Antimalarial activity against Plasmodium berghei infected in Swiss albino mouse assessed as increase in mouse survival at 25 mg/kg/day, po for 4 consecutive days starting from 4 hrs post infection measured on day 28 by Giemsa staining based microscopic method; assay type: functional, organism-based
Plasmodium berghei [7] = assay: Antimalarial activity against Plasmodium berghei infected in Swiss albino mouse assessed as suppression of parasitaemia at 25 mg/kg/day, po for 4 consecutive days starting from 4 hrs post infection measured on day 4 post last dose by Giemsa staining based microscopic method relative to control; assay type: functional

SMILES	IC50 (Plasmodium falciparum [1])	IC50 (Plasmodium falciparum [2])	Ratio IC50 (Plasmodium falciparum [3])	Activity (Plasmodium berghei [4])	Activity (Plasmodium berghei [5])	Activity (Plasmodium berghei [6])	Activity (Plasmodium berghei [7])
CCN(CC)c1ccc2cc(C3=NNC(c4ccccc4)C3)c(=O)oc2c1 (centres undefined)	> 100 µM	> 100 µM					
CCN(CC)c1ccc2cc(C3=NN(C(=O)c4ccccc4)C(c4ccc(Cl)cc4)C3)c(=O)oc2c1 (centres undefined)	> 100 µM	> 100 µM					
CCN(CC)c1ccc2cc(C3=NNC(c4ccc(F)cc4)C3)c(=O)oc2c1 (centres undefined)	44.5 µM	34.2 µM	0.76				
CCN(CC)c1ccc2cc(C3=NN(C(=O)c4ccccc4)C(c4ccc(O)cc4)C3)c(=O)oc2c1 (centres undefined)	26.7 µM	14.3 µM	0.53				
CCN(CC)c1ccc2cc(C3=NNC(c4ccc(Cl)cc4)C3)c(=O)oc2c1 (centres undefined)	27.1 µM	18.6 µM	0.68				
CCN(CC)c1ccc2cc(C3=NN(c4ccccc4)C(c4ccc(F)cc4)C3)c(=O)oc2c1 (centres undefined)	33.8 µM	26.9 µM	0.79				
CCN(CC)c1ccc2cc(C3=NNC(c4ccc([N+](=O)[O-])cc4)C3)c(=O)oc2c1 (centres undefined)	30.4 µM	19.7 µM	0.64				
CCN(CC)c1ccc2cc(C3=NNC(c4ccc(O)cc4)C3)c(=O)oc2c1 (centres undefined)	29.9 µM	26.7 µM	0.89				
CCN(CC)CCCC(C)Nc1ccnc2cc(Cl)ccc12 (centres undefined) [CHLOROQUINE]				Active	100%		
CCN(CC)c1ccc2cc(C3=NN(C(=O)c4ccccc4)C(c4ccc([N+](=O)[O-])cc4)C3)c(=O)oc2c1 (centres undefined)	2.1 µM	3.3 µM	1.6			inactive	62%
CCN(CC)c1ccc2cc(C3=NN(C(=O)c4ccccc4)C(c4ccccc4)C3)c(=O)oc2c1 (centres undefined)	> 100 µM	> 100 µM					
CCN(CC)c1ccc2cc(C3=NN(c4ccccc4)C(c4ccc(O)cc4)C3)c(=O)oc2c1 (centres undefined)	25.3 µM	17.5 µM	0.69				
CCN(CC)c1ccc2cc(C3=NN(C(=O)c4ccccc4)C(c4ccc(F)cc4)C3)c(=O)oc2c1 (centres undefined)	1.9 µM	4.2 µM	2.2			Active	100%
CCN(CC)c1ccc2cc(C3=NN(c4ccccc4)C(c4ccccc4)C3)c(=O)oc2c1 (centres undefined)	> 100 µM	> 100 µM					
CCN(CC)c1ccc2cc(C3=NN(c4ccccc4)C(c4ccc([N+](=O)[O-])cc4)C3)c(=O)oc2c1 (centres undefined)	41.6 µM	20.9 µM	0.5				
CCN(CC)c1ccc2cc(C3=NN(c4ccccc4)C(c4ccc(Cl)cc4)C3)c(=O)oc2c1 (centres undefined)	9.1 µM	10.4 µM	1.1			inactive	34%
